This note sets out measurements from patent publication US20080039450A1, “Compounds” (priority 2006, published 2008).

pIC50: −log10 of the molar value.

The term pIC50 denotes the IC50 on a negative log10 scale, so that one unit is a factor of ten. High values mean a small IC50, low ones a large IC50.

The target in the experiment is T1, MNK2a (Homo sapiens, UniProt Q9HBH9).
T1 construct: expressed in transfected cells; host or cells: HEK293 cells, transient co-transfection with p-eIF4E and p-MNK2a (FuGene6)
T1 sequence (Q9HBH9 whole entry): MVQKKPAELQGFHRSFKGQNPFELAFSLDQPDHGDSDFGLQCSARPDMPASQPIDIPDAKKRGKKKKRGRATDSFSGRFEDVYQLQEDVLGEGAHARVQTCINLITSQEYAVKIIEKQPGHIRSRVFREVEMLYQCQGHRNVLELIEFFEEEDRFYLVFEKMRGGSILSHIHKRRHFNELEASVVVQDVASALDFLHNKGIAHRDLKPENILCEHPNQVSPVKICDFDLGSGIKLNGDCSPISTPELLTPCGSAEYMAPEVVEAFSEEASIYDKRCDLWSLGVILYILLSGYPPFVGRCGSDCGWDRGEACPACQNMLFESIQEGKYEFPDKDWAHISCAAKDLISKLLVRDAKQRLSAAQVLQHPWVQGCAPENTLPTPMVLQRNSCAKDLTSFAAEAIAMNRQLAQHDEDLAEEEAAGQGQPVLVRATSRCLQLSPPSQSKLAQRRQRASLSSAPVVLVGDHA
Description: Cell assay of MNK2a: phosphorylation of downstream substrate eIF4E in HEK293 cells transfected with MNK2a and eIF4E (Western blot). The format is cell-based. As to conditions: HEK293 cells over-expressing MNK2a and eIF4E; 60 min incubation; phospho-eIF4E band at 28 kDa by densitometry. Here is the method:
Analysis of the Effect of MNK-Inhibitors on Phosphorylation of the DownStream Substrate eIF4E
According to the literature el F4E is a unique substrate for MNK1 and MNK2. The purpose of the analysis was to over-express MNK2a together with eIF4E and subsequently incubate with substances of the invention. This would inhibit the MNK2a activity and thereby the phosphorylation of eIF 4E.
Day 1 HEK293 cells were plated in a T162 cm2-flask.
Day 2 Transient transfection with p-elF4E and p-MNK2a. […]
Protein Determination: • The cell lysates were thawed by putting the plates on ice, transferred to Eppendorf tubes and centrifuged at 1300 g, +4° C., 10 min. • 12.5 μl of the supernatant was transferred directly to the plate for protein determination (->dil 1:2) and the rest of the supernatant to new pre-cold tubes and store in −70° C. until assayed. • Day 5-6 Western Blot analysis of cell lysates, according to standard methods, using a specific phospho-elF4E antibody. • To quantify the effect of the substance on the phosphorylation of eIF4E, developed x-ray film from the Western blot analysis was scanned using a densitometer and Image Gauge 4.0 software. The detected band at 28 kDa with 0 μM substance was set to 100%. The density of the band at 28 kDa with the different concentrations of the substance was then analysed. […]

`O=C(c1ccc(-c2cncc(-c3ccc(O)cc3)n2)cc1)N1CCOCC1` [Example 77, 4-{6-[4-(morpholin-4-ylcarbonyl)phenyl]pyrazin-2-yl}phenol] had a pIC50 of 6.05.
`Nc1ncc(-c2ccc(C(=O)N3CCOCC3)cc2F)nc1-c1ccc(O)cc1` [Example 6, 4-{3-amino-6-[2-fluoro-4-(morpholin-4-ylcarbonyl)phenyl]pyrazin-2-yl}phenol] gave a pIC50 of 5.72.
